Data from patent US8895585B2, “Nicotinamide derivative or salt thereof” (FUJIFILM Corporation, priority 2010, dated 2014).

Molecular target: T1, glutathione S-transferase (GST)-fused full-length human Syk protein (Homo sapiens, UniProt P43405)
T1 construct: (GST)-fused full-length human Syk protein; GST (glutathione S-transferase); purchased Carna Biosciences
Assay: Syk enzyme assay
Format: biochemical
Settings: Syk enzyme assay, Test Example 1; read-out: IC50 of Syk-inhibitory activity
In short: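 Baculovirus-expressed enzyme (1.2 ng) was preincubated with compound in HEPES pH 7.0/MgCl2/DTT buffer, 2 min shaking then 13 min at room temperature. Biotin-EDPDYEWPSA-NH2 (0.4 μM final) and ATP (27 μM final) were added for 40 min at room temperature. EDTA stop, streptavidin-XL/PT66-K TR-FRET at 615/665 nm gave IC50.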

`COc1cc(Nc2nc(NC(C(N)=O)c3ccccc3)c(F)cc2C(N)=O)cc(OC)c1` (stereo not shown) [Example 016-009] and `COc1cc(Nc2nc(N[C@@H](C(N)=O)c3ccccc3)c(F)cc2C(N)=O)cc(OC)c1` [Example 016-017] fall in the same range of IC50: 10 to 50 nM for the first, 10 to 50 nM for the second.

`COc1cc(Nc2nc(NCCc3cnc[nH]3)c(F)cc2C(N)=O)cc(OC)c1` [Example 016-011] and `COc1cc(Nc2nc(NCCC(N)=O)c(F)cc2C(N)=O)cc(OC)c1` [Example 033-003] fall in the same range of IC50: 100 to 1000 nM for the first, 100 to 1000 nM for the second.

`C#CCNc1nc(Nc2cc(OC)cc(OC)c2)c(C(N)=O)cc1F` [Example 016-012] and `CNc1nc(Nc2cc(OC)cc(OC)c2)c(C(N)=O)cc1F` [Example 022-008] fall in the same range of IC50: 100 to 1000 nM for the first, 100 to 1000 nM for the second.

`COc1cc(Nc2nc(NCc3ccccc3N)c(F)cc2C(N)=O)cc(OC)c1` [Example 016-014] and `COc1cc(Nc2nc(NCc3ccc(N)cc3)c(F)cc2C(N)=O)cc(OC)c1` [Example 016-015] fall in the same range of IC50: 100 to 1000 nM for the first, 100 to 1000 nM for the second.

`COc1cc(Nc2nc(NCc3cc4ccccc4[nH]3)c(F)cc2C(N)=O)cc(OC)c1` [Example 016-016] and `COc1cc(Nc2nc(NCCc3c[nH]c4ccccc34)c(F)cc2C(N)=O)cc(OC)c1` [Example 020-002] fall in the same range of IC50: 100 to 1000 nM for the first, 100 to 1000 nM for the second.

`COc1cc(Nc2nc(N[C@H](C(N)=O)c3ccccc3)c(F)cc2C(N)=O)cc(OC)c1` [Example 016-018] and `COc1cc(Nc2nc(N[C@@H](C(N)=O)C(C)(C)C)c(F)cc2C(N)=O)cc(OC)c1` [Example 033-005] fall in the same range of IC50: 100 to 1000 nM for the first, 100 to 1000 nM for the second.

`COc1cc(Nc2nc(Nc3ccncc3)c(F)cc2C(N)=O)cc(OC)c1` [Example 016-020] and `COc1cc(Nc2nc(NC(C)(C)C(N)=O)c(F)cc2C(N)=O)cc(OC)c1` [Example 033-002] fall in the same range of IC50: 100 to 1000 nM for the first, 100 to 1000 nM for the second.

`COc1cc(Nc2nc(N3CCNC(=O)C3)c(F)cc2C(N)=O)cc(OC)c1` [Example 016-024] and `COc1cc(Nc2nc(N3CCC(N)C3)c(F)cc2C(N)=O)cc(OC)c1` (stereo not shown) [Example 018-001] fall in the same range of IC50: 100 to 1000 nM for the first, 100 to 1000 nM for the second.

First: CS(=O)(=O)Nc1cncc(Nc2nc(NC3CCCCC3N)c(F)cc2C(N)=O)c1 (stereo not shown) [Example 027-006]
Second: NC(=O)c1cc(F)c(NC2CCCCC2N)nc1Nc1cncc(NC(=O)c2cccs2)c1 (stereo not shown) [Example 027-031]
The IC50 of the first is higher: 100 to 1000 nM for the first, < 10 nM for the second.

First: NC(=O)c1cc(F)c(NC2CCCCC2N)nc1Nc1cncc(NC(=O)c2ccccc2Cl)c1 (stereo not shown) [Example 027-007]
Second: Cc1ccccc1C(=O)Nc1cncc(Nc2nc(NC3CCCCC3N)c(F)cc2C(N)=O)c1 (stereo not shown) [Example 027-023]
The IC50 of the first is lower: 10 to 50 nM for the first, 50 to 100 nM for the second.

`NC(=O)c1cc(F)c(NC2CCCCC2N)nc1Nc1cncc(NC(=O)c2cccc(Cl)c2)c1` (stereo not shown) [Example 027-008] and `NC(=O)c1cc(F)c(NC2CCCCC2N)nc1Nc1cncc(NC(=O)c2cccc(F)c2)c1` (stereo not shown) [Example 027-027] fall in the same range of IC50: 10 to 50 nM for the first, 10 to 50 nM for the second.

`NC(=O)c1cc(F)c(NC2CCCCC2N)nc1Nc1cncc(NC(=O)c2ccc(Cl)cc2)c1` (stereo not shown) [Example 027-009] and `NC(=O)c1cc(F)c(NC2CCCCC2N)nc1Nc1cncc(NC(=O)c2ccncc2)c1` (stereo not shown) [Example 027-022] fall in the same range of IC50: 10 to 50 nM for the first, 10 to 50 nM for the second.

Compared with `NC(=O)c1cc(F)c(NC2CCCCC2N)nc1Nc1cncc(NC(=O)c2ccc(OC(F)(F)F)cc2)c1` (stereo not shown) [Example 027-016], `NC(=O)c1cc(F)c(NC2CCCCC2N)nc1Nc1cncc(NC(=O)c2ccccc2OC(F)(F)F)c1` (stereo not shown) [Example 027-026] is lower in IC50: 100 to 1000 nM for the first, 50 to 100 nM for the second. The second is the more potent here.

Compared with `NC(=O)c1cc(F)c(NC2CCCCC2N)nc1Nc1cncc(NC(=O)c2ccc(Cl)cc2Cl)c1` (stereo not shown) [Example 027-018], `NC(=O)c1cc(F)c(NC2CCCCC2N)nc1Nc1cncc(NC(=O)c2ccc(F)cc2F)c1` (stereo not shown) [Example 027-029] is lower in IC50: 50 to 100 nM for the first, 10 to 50 nM for the second. The second is the more potent here.

`COc1ccc(C(=O)Nc2cncc(Nc3nc(NC4CCCCC4N)c(F)cc3C(N)=O)c2)c(OC)c1` (stereo not shown) [Example 027-019] and `COc1ccccc1C(=O)Nc1cncc(Nc2nc(NC3CCCCC3N)c(F)cc2C(N)=O)c1` (stereo not shown) [Example 027-024] fall in the same range of IC50: 10 to 50 nM for the first, 10 to 50 nM for the second.

`NC(=O)c1cc(F)c(NC2CCCCC2N)nc1Nc1cncc(NC(=O)c2cccnc2)c1` (stereo not shown) [Example 027-021] and `COc1cccc(C(=O)Nc2cncc(Nc3nc(NC4CCCCC4N)c(F)cc3C(N)=O)c2)c1` (stereo not shown) [Example 027-028] fall in the same range of IC50: 10 to 50 nM for the first, 10 to 50 nM for the second.

`CCOc1ccccc1C(=O)Nc1cncc(Nc2nc(NC3CCCCC3N)c(F)cc2C(N)=O)c1` (stereo not shown) [Example 027-025] and `NC(=O)c1cc(F)c(NC2CCCCC2N)nc1Nc1cncc(NC(=O)c2csc3ccccc23)c1` (stereo not shown) [Example 027-039] fall in the same range of IC50: 10 to 50 nM for the first, 10 to 50 nM for the second.

First: NC(=O)c1cc(F)c(NC2CCCCC2N)nc1Nc1cncc(NC(=O)c2ccsc2)c1 (stereo not shown) [Example 027-032]
Second: NC(=O)c1cc(F)c(NC2CCCCC2N)nc1Nc1cncc(NC(=O)c2ccc3sccc3c2)c1 (stereo not shown) [Example 027-038]
The IC50 of the first is lower: < 10 nM for the first, 10 to 50 nM for the second. The first is the more potent here.

`NC(=O)c1cc(F)c(NC2CCCCC2N)nc1Nc1cncc(NC(=O)c2ccc3c(c2)OCO3)c1` (stereo not shown) [Example 027-034] and `NC(=O)c1cc(F)c(NC2CCCCC2N)nc1Nc1cncc(NC(=O)c2ccc3c(c2)OCCO3)c1` (stereo not shown) [Example 027-035] fall in the same range of IC50: 10 to 50 nM for the first, 10 to 50 nM for the second.

Compared with `NC(=O)c1cc(F)c(NC2CCCCC2N)nc1Nc1cncc(NC(=O)c2ccc3occc3c2)c1` (stereo not shown) [Example 027-037], `NC(=O)c1cc(F)c(NC2CCCCC2N)nc1Nc1cncc(NC(=O)c2cc3ccccc3o2)c1` (stereo not shown) [Example 027-041] is lower in IC50: 10 to 50 nM for the first, < 10 nM for the second.

`NC(=O)c1cc(F)c(NC2CCCCC2N)nc1Nc1cncc(NC(=O)c2cc3ccccc3s2)c1` (stereo not shown) [Example 027-040] and `CNC(=O)c1cc(Nc2nc(NC3CCCC[C@@H]3N)c(F)cc2C(N)=O)ccn1` (stereo partly shown) [Example 029-013] fall in the same range of IC50: 10 to 50 nM for the first, 10 to 50 nM for the second.

First: CN(C)C(=O)Cn1ccc2c(Nc3nc(N[C@@H]4CCCC[C@@H]4N)c(F)cc3C(N)=O)ccnc21 [Example 029-004]
Second: CN(C)C(=O)c1cc2c(Nc3nc(N[C@@H]4CCCC[C@@H]4N)c(F)cc3C(N)=O)ccnc2n1C [Example 029-009]
The IC50 of the first is lower: < 10 nM for the first, 100 to 1000 nM for the second. The first is the more potent here.

`NC(=O)c1cc(F)c(NC2CCCC[C@@H]2N)nc1Nc1ccnc2c1ccn2CC(=O)N1CCCCC1` (stereo partly shown) [Example 029-005] and `NC(=O)c1cc(F)c(NC2CCCC[C@@H]2N)nc1Nc1ccnc2c1ccn2CC(=O)N1CCOCC1` (stereo partly shown) [Example 029-006] cannot be ordered by IC50: < 10 nM for the first, < 10 nM for the second.

First: CNC(=O)c1cc2c(Nc3nc(NC4CCCCC4N)c(F)cc3C(N)=O)ccnc2n1C (stereo not shown) [Example 029-008]
Second: Cn1c(C(=O)N2CCOCC2)cc2c(Nc3nc(NC4CCCC[C@@H]4N)c(F)cc3C(N)=O)ccnc21 (stereo partly shown) [Example 029-010]
The IC50 of the first is lower: 10 to 50 nM for the first, 100 to 1000 nM for the second.

First: Cn1c(C(=O)NCCN2CCOCC2)cc2c(Nc3nc(N[C@@H]4CCCC[C@@H]4N)c(F)cc3C(N)=O)ccnc21 [Example 029-011]
Second: NC(=O)c1cc(Nc2nc(N[C@@H]3CCCC[C@@H]3N)c(F)cc2C(N)=O)ccn1 [Example 029-012]
The IC50 of the first is higher: 100 to 1000 nM for the first, < 10 nM for the second.

First: CN(C)C(=O)c1cc(Nc2nc(NC3CCCC[C@@H]3N)c(F)cc2C(N)=O)ccn1 (stereo partly shown) [Example 029-014]
Second: COc1cc(Nc2nc(NC3CCCC3C(N)=O)c(F)cc2C(N)=O)cc(OC)c1 (stereo not shown) [Example 033-007]
The IC50 of the first is lower: 50 to 100 nM for the first, 100 to 1000 nM for the second.

Compound `NCCNc1nc(Nc2cccc(C(=O)N3CCCCC3)c2)c(C(N)=O)cc1F` [Example 031-002] has an IC50 of 100 to 1000 nM.

Same assay, conditions: read-out: Syk-inhibitory activity (IC50)

`COc1cc(Nc2nc(NC(C(N)=O)c3ccccc3)c(F)cc2C(N)=O)cc(OC)c1` (stereo not shown) [Example 16-9, 6-((2-amino-2-oxo-1-phenylethyl)amino)-2-((3,5-dimethoxyphenyl)amino)-5-fluoronicotinamide] and `COc1cc(Nc2nc(N[C@@H](C(N)=O)c3ccccc3)c(F)cc2C(N)=O)cc(OC)c1` [Example 16-17, 6-(((1R)-2-amino-2-oxo-1-phenylethyl)amino)-2-((3,5-dimethoxyphenyl)amino)-5-fluoronicotinamide] cannot be ordered by IC50: ≤ 1000 nM for the first, ≤ 1000 nM for the second.

`COc1cc(Nc2nc(N[C@H](C(N)=O)c3ccccc3)c(F)cc2C(N)=O)cc(OC)c1` [Example 16-18, 6-(((1S)-2-amino-2-oxo-1-phenylethyl)amino)-2-((3,5-dimethoxyphenyl)amino)-5-fluoronicotinamide] and `COc1cc(Nc2nc(NC(C)C(N)=O)c(F)cc2C(N)=O)cc(OC)c1` (stereo not shown) [Example 33-1, 6-((2-amino-1-methyl-2-oxoethyl)amino)-2-(3,5-dimethoxyphenylamino)-5-fluoronicotinamide] cannot be ordered by IC50: ≤ 1000 nM for the first, ≤ 1000 nM for the second.

`COc1cc(Nc2nc(N3CC[C@@H](N)C3)c(F)cc2C(N)=O)cc(OC)c1` [Example 17, 6-((3R)-3-aminopyrrolidin-1-yl)-2-(3,5-dimethoxyphenylamino)-5-fluoronicotinamide] and `CNc1nc(Nc2cc(OC)cc(OC)c2)c(C(N)=O)cc1F` [Example 23, 2-(3,5-dimethoxyphenylamino)-5-fluoro-6-(methylamino)nicotinamide] cannot be ordered by IC50: ≤ 1000 nM for the first, ≤ 1000 nM for the second.

`COc1cc(Nc2nc(NCCc3c[nH]c4ccccc34)c(F)cc2C(N)=O)cc(OC)c1` [Example 19, 2-(3,5-dimethoxyphenylamino)-5-fluoro-6-(2-(1H-indole-3-yl)ethylamino)nicotinamide] and `COc1cc(Nc2nc(NC(C(N)=O)C(C)C)c(F)cc2C(N)=O)cc(OC)c1` (stereo not shown) [Example 32, 6-(1-aminocarbonyl-2-methylpropylamino)-2-(3,5-dimethoxyphenylamino)-5-fluoro nicotinamide] cannot be ordered by IC50: ≤ 1000 nM for the first, ≤ 1000 nM for the second.

`NC(=O)c1cc(F)c(Nc2cccnc2)nc1Nc1cnc2ccccc2c1` [Example 24, 5-fluoro-6-(pyridin-3-ylamino)-2-(quinolin-3-ylamino)nicotinamide] and `NCCNc1nc(Nc2cccc(C(=O)Nc3ccccc3)c2)c(C(N)=O)cc1F` [Example 30, 6-(2-aminoethylamino)-2-(3-(anilinocarbonyl)phenylamino)-5-fluoronicotinamide] cannot be ordered by IC50: ≤ 1000 nM for the first, ≤ 1000 nM for the second.

For `NCCNc1nc(Nc2cccc(C(=O)NC3CCCCC3)c2)c(C(N)=O)cc1F` [Example 31-3, 6-((2-aminoethyl)amino)-2-((3-(cyclohexylaminocarbonyl)phenyl)amino)-5-fluoronicotinamide], the IC50 was ≤ 1000 nM.
